Assays:
barnyardgrass [1] = assay: Test B flooded paddy test; format: in vivo, Echinochloa crus-galli; settings: 500 g ai/ha, Flood; scale of 0 to 100 where 0 is no effect and 100 is complete control
Outline: (§1)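 Scoring: visual, compared with untreated controls, 0 = no effect through 100 = complete control, taken 13 to 15 days after treatment in the greenhouse. Compounds had been added to paddy water over soil flooded 3 cm deep at the plants' 2-leaf stage.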

pigweed [2] = assay: Test A pre-/postemergence herbicide test; format: in vivo, Amaranthus retroflexus
Outline: (§2)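 Formulated compound (non-phytotoxic solvent, surfactant) sprayed pre- onto soil of seeded loam/sand pots or post- onto seedlings at 1–2 leaves; ~10 d greenhouse; 0–100 visual control rating versus untreated.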

pigweed [3] = assay: Test C pre-/postemergence herbicide test; format: in vivo, Amaranthus retroflexus
Source text: Seeds of plant species selected from blackgrass (Alopecurus myosuroides), ryegrass, Italian (Italian ryegrass, Lolium multiflorum), wheat (winter wheat, Triticum aestivum), galium (catchweed bedstraw, Galium aparine), corn (Zea mays), crabgrass, large (large crabgrass, Digitaria sanguinalis), foxtail, giant (giant foxtail, Setaria faberii), johnsongrass (Sorghum halepense), lambsquarters (Chenopodium album), morningglory (Ipomoea coccinea), nutsedge, yellow (yellow nutsedge, Cyperus esculentus), pigweed (Amaranthus retroflexus), ragweed (common ragweed, Ambrosia elatior), soybean (Glycine max), barnyardgrass (Echinochloa crus-galli), oilseed rape (Brassica napus), waterhemp (common waterhemp, Amaranthus rudis), kochia (Kochia scoparia), oat, wild (wild oat, Avena fatua), surinam grass (Brachiaria decumbens), foxtail, green (green foxtail, Setaria viridis), goosegrass (Eleusine indica), bromegrass, downy (downy bromegrass, Bromus tectorum), nightshade (eastern black nightshade, Solanum ptycanthum), cocklebur (common cocklebur, Xanthium strumarium), cupgrass, woolly (woolly cupgrass, Eriochloa villosa), bermudagrass (Cynodon dactylon), sunflower, (common oilseed sunflower, Helianthus annuus), Russian thistle (Salsola kali) and velvetleaf (Abutilon theophrasti) were planted into a blend of loam soil and sand and treated preemergence with test chemicals formulated in a non-phytotoxic solvent mixture which included a surfactant. At the same time, plants selected from these crop and weed species and also barley (winter barley, Hordeum vulgare), […]), chickweed (common chickweed, Stellaria media), deadnettle (henbit deadnettle, Lamium amplexicaule), and canarygrass (littleseed canarygrass, Phalaris minor) were planted in pots containing Redi-Earth® planting medium (Scotts Company, 14111 Scottslawn Road, Marysville, Ohio 43041) comprising spaghnum peat moss, vermiculite, wetting agent and starter nutrients and treated with postemergence applications of test chemicals formulated in the same manner. Plants ranged in height from 2 to 18 cm (1- to 4-leaf stage) for postemergence treatments. Treated plants and controls were maintained in a greenhouse for 13 to 15 days, after which time all species were compared to controls and visually evaluated. Plant response ratings, summarized in Table C, are based on a scale of 0 to 100 where 0 is no effect and 100 is complete control. A dash (-) response means no test result.

ryegrass, Italian = assay: Test A pre-/postemergence herbicide test; format: in vivo, Lolium multiflorum
Outline: as §2

barnyardgrass [4] = assay: Test C pre-/postemergence herbicide test; format: in vivo, Echinochloa crus-galli
Outline: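 Compound solutions contained surfactant in a non-phytotoxic solvent. These were sprayed onto pots of loam/sand sown with seeds, and onto young plants (2 to 18 cm, 1- to 4-leaf) in sphagnum peat–vermiculite mix. Visual injury scores (0 none, 100 complete control) were recorded after 13 to 15 days.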

ducksalad = assay: Test B flooded paddy test; format: in vivo, Heteranthera limosa; settings: 500 g ai/ha, Flood; scale of 0 to 100 where 0 is no effect and 100 is complete control
Outline: as §1

ragweed = assay: Test A pre-/postemergence herbicide test; format: in vivo, Ambrosia elatior
Outline: as §2

[5] = Postemergence, 125 g ai/ha, visual rating on 0 to 100 scale (0 no effect, 100 complete control), approx. 10 days
[6] = Postemergence, 500 g ai/ha, 0 to 100 scale (0 no effect, 100 complete control)
[7] = Preemergence, 125 g ai/ha, 0 to 100 scale where 0 is no effect and 100 is complete control
[8] = preemergence, 500 g ai/ha, 0 to 100 scale, 0 is no effect and 100 is complete control
[9] = Preemergence, 31 g ai/ha, scale 0 to 100, 0 is no effect and 100 is complete control
[10] = Preemergence, 62 g ai/ha, scale 0 to 100 (0 no effect, 100 complete control)
[11] = Preemergence, 125 g ai/ha, scale 0 to 100 (0 no effect, 100 complete control)
[12] = Preemergence, 500 g ai/ha, visual rating on 0 to 100 scale (0 no effect, 100 complete control)
[13] = Preemergence, 31 g ai/ha, scale 0 to 100
[14] = 125 g ai/ha, visual rating, 0 to 100 scale, 0 no effect, 100 complete control, approximately 10 days, preemergence
[15] = Postemergence, 125 g ai/ha, 0 to 100 scale, 0 is no effect, 100 is complete control
[16] = Preemergence, 62 g ai/ha, scale 0 to 100
[17] = Postemergence, 31 g ai/ha, scale 0 to 100 (0 no effect, 100 complete control)
[18] = Postemergence, 62 g ai/ha, scale 0 (no effect) to 100 (complete control)
[19] = Postemergence, 125 g ai/ha, scale 0 to 100 (0 no effect, 100 complete control)
[20] = Postemergence, 250 g ai/ha, scale 0 to 100 (0 no effect, 100 complete control)

SMILES | Plant response rating, Barnyardgrass (barnyardgrass [1]) | Plant response rating, Pigweed (pigweed [2]; [5]) | Plant response rating, Pigweed (pigweed [2]; [6]) | Plant response rating, Pigweed (pigweed [2]; [7]) | Plant response rating, Pigweed (pigweed [2]; [8]) | Pigweed plant response rating (pigweed [3]; [9]) | Pigweed plant response rating (pigweed [3]; [10]) | Plant response rating, Pigweed (pigweed [3]; [11]) | Plant response rating (scale of 0 to 100), Pigweed (pigweed [3]; Preemergence, 250 g ai/ha) | Plant response rating, Ryegrass, Italian (ryegrass, Italian; [5]) | Plant response rating, Ryegrass, Italian (ryegrass, Italian; [6]) | Plant response rating, Ryegrass, Italian (ryegrass, Italian; [7]) | Plant response rating, Ryegrass, Italian (ryegrass, Italian; [8]) | Barnyardgrass plant response rating (barnyardgrass [4]; [9]) | Barnyardgrass plant response rating (barnyardgrass [4]; [10]) | Plant response rating, Barnyardgrass (barnyardgrass [4]; [11]) | Plant response rating (scale of 0 to 100; 0 is no effect, 100 is complete control), Barnyardgrass (barnyardgrass [4]; Preemergence, 250 g ai/ha) | Plant response rating, Ducksalad (ducksalad) | Plant response rating, Ragweed (ragweed; [5]) | Plant response rating, Ragweed (ragweed; [6]) | also measured
O=C1NCC(c2cc(F)cc(F)c2)C1C(=O)Nc1ccccc1Cl (racemic) [Compound 280] | 65 | 0 | 0 | 0 | 0 | 10 | 0 | 20 | 20 | 0 | 0 | 0 | 0 | 55 | 65 | 85 | 95 | 100 | 0 | 0 | Plant response rating, Ragweed (ragweed; [7]): 0; Plant response rating, Ragweed (ragweed; [8]): 0
O=C1NCC(c2ccc(OC(F)F)cc2)C1C(=O)Nc1cccc(F)c1F (racemic) [Compound 350] | 60 | 20 |  | 50 |  |  | 10 |  |  | 0 |  | 0 |  |  | 90 | 90 | 90 | 100 | 0 |  | Pigweed plant response rating (pigweed [2]; [12]): 80; Plant response rating, Pigweed (pigweed [3]; Preemergence, 125 g ai/ha, scale 0 to 100): 80; Plant response rating, Pigweed (pigweed [3]; [13]): 0; Ryegrass, Italian plant response rating (ryegrass, Italian; [12]): 0; Plant response rating, Barnyardgrass (barnyardgrass [4]; [13]): 75; Plant response rating, Ragweed (ragweed; [7]): 30; Ragweed plant response rating (ragweed; [12]): 30
O=C1NCC(c2ccc(Cl)cc2)C1C(=O)Nc1cccc(F)c1F (centres unmarked) [Compound 218] | 70 |  |  |  | 70 | 5 | 50 | 75 | 85 |  |  |  | 60 | 80 |  | 95 | 95 | 100 |  |  | Plant response rating, Pigweed (pigweed [2]; [14]): 30; Plant response rating, Pigweed (pigweed [2]; [15]): 0; Pigweed plant response rating (0 to 100 scale, 0 is no effect, 100 is complete control) (pigweed [2]; Postemergence, 500 g ai/ha): 40; Plant response rating, Ryegrass, Italian (ryegrass, Italian; [14]): 40; Plant response rating, Ryegrass, Italian (ryegrass, Italian; [15]): 0; Ryegrass, Italian plant response rating (0 to 100 scale, 0 is no effect, 100 is complete control) (ryegrass, Italian; Postemergence, 500 g ai/ha): 30; Plant response rating, Barnyardgrass (barnyardgrass [4]; [16]): 90; Plant response rating, Ragweed (ragweed; [14]): 0; Plant response rating, Ragweed (ragweed; [15]): 0; Ragweed plant response rating (0 to 100 scale, 0 is no effect, 100 is complete control) (ragweed; Postemergence, 500 g ai/ha): 50; Plant response rating, Ragweed (ragweed; [8]): 50
O=C1NCC(c2ccc(C(F)(F)F)cc2)C1C(=O)Nc1ccccc1F (centres unmarked) [Compound 231] | 0 |  |  |  | 70 | 35 | 70 | 85 | 90 |  |  |  | 60 | 85 |  | 95 | 95 | 0 |  |  | Plant response rating, Pigweed (pigweed [2]; [14]): 70; Plant response rating, Pigweed (pigweed [2]; [15]): 0; Pigweed plant response rating (0 to 100 scale, 0 is no effect, 100 is complete control) (pigweed [2]; Postemergence, 500 g ai/ha): 40; Plant response rating, Ryegrass, Italian (ryegrass, Italian; [14]): 40; Plant response rating, Ryegrass, Italian (ryegrass, Italian; [15]): 20; Ryegrass, Italian plant response rating (0 to 100 scale, 0 is no effect, 100 is complete control) (ryegrass, Italian; Postemergence, 500 g ai/ha): 40; Plant response rating, Barnyardgrass (barnyardgrass [4]; [16]): 90; Plant response rating, Ragweed (ragweed; [14]): 70; Plant response rating, Ragweed (ragweed; [15]): 20; Ragweed plant response rating (0 to 100 scale, 0 is no effect, 100 is complete control) (ragweed; Postemergence, 500 g ai/ha): 50; Plant response rating, Ragweed (ragweed; [8]): 90
CN1CC(c2cccc(C(F)(F)F)c2)C(C(=O)Nc2cccc(F)c2F)C1=O (centres unmarked) [Compound 305] | 75 | 60 | 70 | 0 |  | 10 | 70 | 80 | 85 | 60 | 70 | 70 |  | 90 | 95 | 95 | 98 | 100 | 0 | 0 | Pigweed plant response rating (pigweed [2]; [12]): 40; Plant response rating, Pigweed (pigweed [3]; [17]): 55; Plant response rating, Pigweed (pigweed [3]; [18]): 60; Plant response rating, Pigweed (pigweed [3]; [19]): 65; Plant response rating, Pigweed (pigweed [3]; [20]): 65; Ryegrass, Italian plant response rating (ryegrass, Italian; [12]): 90; Plant response rating, Barnyardgrass (barnyardgrass [4]; [17]): 20; Plant response rating, Barnyardgrass (barnyardgrass [4]; [18]): 55; Plant response rating, Barnyardgrass (barnyardgrass [4]; [19]): 70; Plant response rating, Barnyardgrass (barnyardgrass [4]; [20]): 80; Plant response rating, Ragweed (ragweed; [7]): 30; Ragweed plant response rating (ragweed; [12]): 50
CN1CC(c2ccc(C(F)(F)F)cc2)C(C(=O)Nc2cccc(F)c2F)C1=O (centres unmarked) [Compound 306] | 75 | 70 | 80 | 80 |  | 80 | 85 | 85 | 90 | 50 | 60 | 40 |  | 90 | 90 | 90 | 95 | 100 | 20 | 40 | Pigweed plant response rating (pigweed [2]; [12]): 90; Plant response rating, Pigweed (pigweed [3]; [17]): 75; Plant response rating, Pigweed (pigweed [3]; [18]): 85; Plant response rating, Pigweed (pigweed [3]; [19]): 85; Plant response rating, Pigweed (pigweed [3]; [20]): 90; Ryegrass, Italian plant response rating (ryegrass, Italian; [12]): 80; Plant response rating, Barnyardgrass (barnyardgrass [4]; [17]): 0; Plant response rating, Barnyardgrass (barnyardgrass [4]; [18]): 45; Plant response rating, Barnyardgrass (barnyardgrass [4]; [19]): 85; Plant response rating, Barnyardgrass (barnyardgrass [4]; [20]): 85; Ragweed plant response rating (ragweed; [12]): 80
